Experiments:
[1] = PAMPA model of passive BBB permeability; assay type: in vitro ADME; settings: passive transport
Description: PAMPA is used as an in vitro model of passive BBB permeability. An artificial membrane immobilized on a filter is placed between a donor and acceptor compartment. At the start of the test, a drug is introduced in the donor compartment. Following the permeation period, the concentration of the drug in the donor and acceptor compartments are measured using UV spectroscopy. Therefore the permeability of any compound with a UV chromophore can be determined by this method.
The tested compound stock solutions were diluted 200-fold in universal buffer at pH 7.4 and added to the donor wells. The filter membrane was coated with PBL in dodecane and the acceptor well was filled with pH 7.4 buffer. The acceptor filter plate was carefully put on the donor plate to form a ‘sandwich’ (consisting of the aqueous donor with test the compound on the bottom, an artificial lipid membrane in the middle, and an aqueous acceptor on the top). The test compound diffused from the donor well through the lipid membrane and into the acceptor well. The ‘sandwich’ was left undisturbed for 18 hrs while the permeation occurred. The concentration of the test compound in the acceptor, the donor, and the reference wells was determined using the UV plate reader. Effective permeability (Pe) of each compound was calculated by using the pION PSR4p software. Samples were analyzed in triplicate and the average of the three runs was reported. Quality control standards were run with each sample set to monitor the consistency of the analysis set.

iNOS = assay: Neuroinflammation in vitro model, organotypic cerebellar culture challenged with LPS, real-time PCR; assay type: cell-based, mice; settings: G79 100 ng/ml pre-treatment; 24 h after the challenge with LPS
From the text: Neonates mice (day 8 after birth (P8)) were decapitated after anaesthetic IP injection and whole brains were removed aseptically. Cerebellum was separated from the rest of the brain and placed on a metal vibratome plate. Once the cerebellum was attached to the surface of the plate, 400 μm sagittal sections were cut using the vibratome. The slices were then transferred with a plastic Pasteur pipette to a cell culture plate containing an organotypic culture medium (5% CO2 in 50% basal medium with Earle's salt, 25% Hank's buffered salt solution, 25% inactivated horse serum, 5 mg/ml glucose, 0.25 mM L-glutamine and 25 μg/ml penicillin/streptomycin). After separating and isolating each slice, the cerebellar slices were then transferred to 6-well plates (3 slices for each well) containing a 30 mm culture plate insert with 0.4 μm pores (Millipore) and 1 ml full culture medium, pre-conditioned by incubation for at least 2 hours at 37° C., and 5% CO2 was added into each well below the insert. […]
Organotypic slices collected from the LPS stimulation experiment were homogenized in RNA lysis buffer. […] Primers and target-specific fluorescence-labeled TaqMan probes were purchased from Applied Biosystems (TaqMan Gene Expression assays). […] The expression of the gene tested was quantified relative to the level of the housekeeping gene GAPDH.

[2] = system: NGF-receptors (TrkA and p75) on PC12 cells; assay: Cytometry binding assay, competition NGF/G79-FITC in PC12; settings: G79-FITC 100 ng/ml; NGF 0-10-20-50-100 ng/ml
Description: In order to assess the binding of G79 to the TrkA (PC12 cells) and TrkB receptors (SH-SY5Y), we performed competitive binding assays by flow cytometry. In order to assess the binding competition between p75 and TrkA, PC12 cells expressing both TrkA and p75 receptors were cultivated in normal growth medium. After detaching cells by trypsin solution, 200,000 cells/well were added to tubes for the following incubations. One tube contains control untreated cells. In the other tubes, cells were pre-incubated for 45 minutes with different concentrations of NGF (0-10-20-50-100 ng/ml), that can directly bind both TrkA and p75 receptors, blocking the possible binding of G79 if it competes for the same receptors. Then, without washing the cells, G79 conjugated with FITC fluorescence (100 ng/ml) was added and so incubated the cells for 1 hour. Samples were read in a cytometer (FCAScan).
To detect the binding separately on both receptors, a prior incubation of cells (before NGF incubation) with blocking antibodies was made. The cells were preincubated for 1 hour with blocking antibody anti-p75 (1:100; Chemicon Int.), to detect the binding on TrkA, or blocking antibody anti-TrkA (1:200; AbCam) to detect the binding on p75. […] All the results are expressed as mean channel fluorescence (MCF), which is a measure of the cell surface fluorescence produced by G79-FITC binding.

TNFα = assay: Neuroinflammation in vitro model, organotypic cerebellar culture challenged with LPS, ELISA; assay type: cell-based, mice; settings: G79 100 ng/ml pre-treatment; LPS 15 μg/ml
From the text: (§1) Neonates mice (day 8 after birth (P8)) were decapitated after anaesthetic IP injection and whole brains were removed aseptically. Cerebellum was separated from the rest of the brain and placed on a metal vibratome plate. Once the cerebellum was attached to the surface of the plate, 400 μm sagittal sections were cut using the vibratome. The slices were then transferred with a plastic Pasteur pipette to a cell culture plate containing an organotypic culture medium (5% CO2 in 50% basal medium with Earle's salt, 25% Hank's buffered salt solution, 25% inactivated horse serum, 5 mg/ml glucose, 0.25 mM L-glutamine and 25 μg/ml penicillin/streptomycin). After separating and isolating each slice, the cerebellar slices were then transferred to 6-well plates (3 slices for each well) containing a 30 mm culture plate insert with 0.4 μm pores (Millipore) and 1 ml full culture medium, pre-conditioned by incubation for at least 2 hours at 37° C., and 5% CO2 was added into each well below the insert. The six-well plates were kept at 37° C. and under 5% CO2, and half the medium was replaced every 2 days. All the experiments were performed after 1 week of culture in such conditions.
(§2) After one week of organotypic cerebellum culture, the medium of each well was replaced with fresh medium and G79 (100 ng/ml) or placebo (physiologic solution) was added to the wells and kept in incubation for 1 hour. […]

IL-1β = assay: as above; assay type: cell-based, mice; settings: G79 100 ng/ml pre-treatment; LPS 15 μg/ml
From the text: as §1, §2

CC(C)CN(CC(=O)N(CCCN1CCCC1=O)CC(N)=O)C(=O)CNCCc1ccccc1F [Compound G79, [N-(2-(2′-Fluorophenyl)ethyl)glycyl]-[N-(2-methylpropyl)glycyl]-N-[3-(2′-oxopyrrolidinyl)propyl]glycinamide]
crossing the BBB in the PAMPA model (in words) [1]: unable to cross the BBB in the PAMPA model
expression of iNOS compared to placebo pre-treated samples (iNOS): decrease in the expression of iNOS
competition with NGF for binding (MCF of G79-FITC) [2]: competes for the binding on the same NGF-receptors
production of TNFα compared to placebo (TNFα): reduced at 6 and 12 hours
release of IL-1β (IL-1β): did not affect the release of IL-1β
